In paper PMC3742835, “Powerful Inhibition of Experimental Human Pancreatic Cancers by Receptor Targeted Cytotoxic LH-RH analog AEZS-108” (Oncotarget, 2013):

How the values were obtained:
[1] = tested on: advanced pancreatic cancers; settings: cited from earlier work
Excerpt: Pancreatic carcinoma is the 9th most common human cancer in the Western world, including the USA, but it is the fourth leading cause of cancer death in both males and females. Its incidence has increased in the white population by about 1% per year between 1999 through 2008. Ductal carcinomas of the pancreas are very aggressive tumors, and because of the concealed location of the gland, they are mostly detected in late stages of development when surgical removal is not useful. Thus, the 5-year survival rate is below 5% and the median survival time after diagnosis is less than 6 mo ...

SW-1990 tumors [2] = assay: Human Cancer Pathway Finder PCR Array, SW-1990 tumors; format: in vivo, human (xenograft in nude mice)
Excerpt: (§1) After isolating total RNA and protein from tumor samples from experiments 2, 3 and 4 by using the NucleoSpin kit (Macherey-Nagel, Bethlehem, PA, USA), the Human Cancer Pathway Finder Superarray and the Human Apoptosis RT Profiler PCR Array (Qiagen Inc. Valencia, CA, USA) were used to analyze 3 representative samples from each group for mRNA levels of genes related to cell adhesion, apoptosis, cell cycle, angiogenesis, signal transduction, invasion and metastasis. Quality control of RNA samples, synthesis of cDNA and RT-PCR arrays were performed as described. Gene expression data were examined using Excel based PCR Array Data Analysis Software provided by Qiagen; fold-changes in gene expression were calculated using the ΔΔCt method and five housekeeping genes (B2M, HPRT1, RPL13A, GAPDH, and ACTB) were used for normalization of the results.

CFPAC-1 cancers [3] = assay: Human Cancer Pathway Finder PCR Array, CFPAC-1 tumors; format: in vivo, human (xenograft in nude mice)
Excerpt: as §1

[4] = Experiment 1: body and organ weights of mice; format: in vivo; settings: Experiment 1, nude mice with Panc-1; AN-152 6.9 μmol/kg, DOX 2.5 μmol/kg iv
Protocol: (§2) Control and treatment groups were then selected at random.
(§3) In Experiment 1, nude mice with Panc-1 tumors were treated iv. on days 1, 8. […] There were 8 animals in each group. The experiment was terminated on day 82.

CFPAC-1 cancers [5] = assay: Human Apoptosis RT Profiler PCR Array, CFPAC-1; format: in vivo, human (xenograft in nude mice)
Excerpt: as §1

CFPAC-1 cancers [6] = assay: Experiment 3: CFPAC-1 tumor growth in nude mice
Protocol: Chemicals, unless stated otherwise, were purchased from Sigma (St. Louis, MO).
Female athymic nude mice (Ncr nu/nu) were obtained from the National Cancer Institute (Frederick Cancer Research and Development Center, Frederick, MD), Charles River Laboratories International, Inc. (Durham, NC) and Harlan Laboratories (Tampa, FL) and maintained under pathogen-limited conditions. […] To produce tumor donor animals, 10^6 cells of each line were injected subcutaneously into 3 nude mice and grown until well-developed tumors were grown. The resulting tumors were removed, minced and 2 mm^3 pieces of tumor tissue were transplanted subcutaneously into each flank area of the experimental nude mice. When the tumors became measurable, the mice were divided into groups with nearly equal average tumor sizes. Control and treatment groups were then selected at random.
The compounds were given iv. on days 1, 5, 8, 12, 15 and 30. There were 8 animals per group, and the experiment lasted to the 61st day of the treatment period.
One-way ANOVA (Sigmaplot-11 software; Jandel Scientific, San Raphael, CA) was used for statistical evaluation of the data, and the groups were compared using Dunnett's method.

[7] = tested on: three tumor lines (Panc-1, SW-1990, CFPAC-1); assay: Human Cancer Pathway Finder PCR Array, three tumor lines together; format: in vivo, human (xenograft in nude mice)
Excerpt: as §1

SW-1990 tumors [8] = assay: Human Apoptosis RT Profiler PCR Array, SW-1990; format: in vivo, human (xenograft in nude mice)
Excerpt: as §1

Panc-1 cancers [9] = assay: Human Apoptosis RT Profiler PCR Array, Panc-1; format: in vivo, human (xenograft in nude mice)
Excerpt: as §1

[10] = Experiment 3: body and organ weights of mice; format: in vivo; settings: Experiment 3, nude mice with CFPAC-1; iv
Excerpt: as §2

SW-1990 cancers = assay: Experiment 2: SW-1990 tumor growth in nude mice; format: in vivo, human (xenograft in nude mice); settings: for Tumor volume (final): control 3464±838; for Tumor volume (final) / Tumor weights, solid tumor part: AN-152 and DOX P<0.05 vs. control; for Tumor weights, tumors with cysts: control 3729±921, AN-152 P<0.05 vs. control; for Tumor weights, solid tumor part: cut, fluid released, control 2473±636
Protocol: as §2
All compounds were administered iv.(at 6.9 μmol/kg) once weekly for 7 weeks. There were 10 animals per group. The experiment was terminated 65 days after the first treatment.

Panc-1 cancers [11] = assay: Human Cancer Pathway Finder PCR Array, Panc-1 tumors; format: in vivo, human (xenograft in nude mice)
Excerpt: as §1

Panc-1 cancers [12] = assay: Experiment 1: Panc-1 tumor growth in nude mice; format: in vivo, human (xenograft in nude mice); settings: AN-152 6.9 μmol/kg, DOX 2.5 μmol/kg
Protocol: as §2, §3

[13] = tested on: nitrosamine-induced pancreatic cancers; settings: hamsters; cited from earlier work
Excerpt: Receptors for various peptide hormones are present in pancreatic cancers and these receptors can be utilized for both diagnostic and therapeutic purposes.. […] [15, 21] however, their function and importance is still unclear. The combined detection of mRNA for both LH-RH and LH-RH receptor in rat pancreatic cancer lines raised the possibility of an autocrine/paracrine role of LH-RH in these tumors. The findings that both estrogen and androgen receptors are likewise expressed in pancreati ...

[14] = tested on: binding sites for LH-RH in nitrosamine-induced pancreatic cancers in hamsters; set-up: method as in PMID 15350601; settings: cited from earlier work
[15] = SW-1990, 6.9 μmol/kg iv once weekly for 7 weeks, 10 animals/group, day 65, means ± SE

## Nc1ccn([C@@H]2O[C@H](CO)[C@@H](O)C2(F)F)c(=O)n1 [gemcitabine]
[1]; gemcitabine alone or in combination with 5-fluorouracil, radiation or erlotinib, advanced pancreatic cancers
  Clinical efficacy: minimal palliation

## COc1cccc2c1C(=O)c1c(O)c3c(c(O)c1C2=O)C[C@@](O)(C(=O)CO)C[C@@H]3O[C@H]1C[C@H](N)[C@H](O)[C@H](C)O1 [DOX, doxorubicin]
SW-1990 tumors [2]
  Expression of cell cycle control and DNA damage repair genes: altered in both directions
SW-1990 tumors [2]; treated vs control tumors
  Expression of genes associated with adhesion: changed in both directions
CFPAC-1 cancers [3]
  Expression of cell cycle control and DNA damage repair genes: only decreases
CFPAC-1 cancers [3]; treated vs control tumors
  Expression of genes associated with adhesion: decreased
[4]
  Effect on body and organ weights: Neither treatment had an effect on body and organ weights of the mice
CFPAC-1 cancers [5]
  Expression of anti-apoptotic genes: decreased
CFPAC-1 cancers [5]; several genes
  Expression of pro-apoptotic genes: decreased
CFPAC-1 cancers [6]; iv days 1, 5, 8, 12, 15 and 30
  Tumor volume (in words): moderate but not significant decrease
CFPAC-1 cancers [6]; iv days 1, 5, 8, 12, 15 and 30, 8 animals/group, day 61, means ± SE, control 2502±769, AN-152 P<0.05 vs. control
  Tumor volume (final): 1063±518 mm3
[7]; all three tumor lines, treated vs control tumors
  Expression of genes related to invasion and metastasis: causing the stronger increases
[7]; three tumor lines
  TIMP3 expression: strongly increased
[7]; three tumor lines, treated vs control tumors
  Expression of genes related to signal transduction molecules and transcription factors: caused considerable increases or decreases in some
[7]; three tumors, Cancer Pathway Finder array
  Expression of apoptosis-associated genes: variable in the three tumors after both treatments
SW-1990 tumors [8]
  Expression of anti-apoptotic genes: mostly increased
SW-1990 tumors [8]; several genes
  Expression of pro-apoptotic genes: changed in both directions
Panc-1 cancers [9]
  Expression of anti-apoptotic genes: mostly increased
Panc-1 cancers [9]; several genes
  Expression of pro-apoptotic genes: increased
[10]
  Body weights: the lowest in the group receiving DOX, but the differences from control were statistically not significant
  Ovarian weights: reduced
SW-1990 cancers; SW-1990, 6.9 μmol/kg iv once weekly for 7 weeks
  Solid tumor weights (in words): reduced
SW-1990 cancers; [15]
  Tumor volume (final): 1213±381a mm3
  Tumor weights, tumors with cysts: 1496 ± 466 mg
  Tumor weights, solid tumor part: 585 ± 141 mg
SW-1990 cancers; SW-1990 in nude mice
  Growth inhibition (in words): inhibitory effect on growth
Panc-1 cancers [11]
  Expression of cell cycle control and DNA damage repair genes: altered in both directions
Panc-1 cancers [11]; treated vs control tumors
  Expression of genes associated with adhesion: decreased
Panc-1 cancers [12]; Panc-1, iv days 1, 8, 15, 22, 33, 61, 8 animals/group, day 82, means ± SE, control 2040±1357, AN-152 P<0.05 vs. control
  Tumor volume (final): 849±363 mm3
Panc-1 cancers [12]; Panc-1 in nude mice, iv
  Growth inhibition (in words): only a moderate but not significant inhibitory effect

## FOLFIRINOX
[1]; human, in vivo
  Toxicity: highly toxic

## cetrorelix
[13]
  Growth inhibition of nitrosamine-induced pancreatic cancers: inhibits growth

## LH-RH: hypothalamic peptide hormone
[14]
  Affinity of binding sites for LH-RH: moderate-affinity

## D-Trp^6LH-RH
[13]
  Growth inhibition of nitrosamine-induced pancreatic cancers: inhibits growth
SW-1990 cancers; SW-1990, 6.9 μmol/kg iv once weekly for 7 weeks, 10 animals/group, day 65, means ± SE, control 1.56±0.12, AN-152 P<0.05 vs. all other groups
  Cystic/solid tumor (weight ratio): 1.56±0.11
SW-1990 cancers; [15]
  Tumor volume (final): 2791±646 mm3
  Tumor weights, tumors with cysts: 3107 ± 696 mg
  Tumor weights, solid tumor part: 1862 ± 361 mg
